Test systems include UACC-257 melanoma; LOX IMVI melanoma; OVCAR-4 ovarian; SF-295 CNS; ACHN renal; HCT-116 colon; OVCAR-8 ovarian; A498 renal; 786-0 renal; SF-539 CNS.
Test in all cases: NCI anticancer screen, dose series, 48 h

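Five compound concentrations were applied to cells in 96-well plates for 48 hours; endpoints were derived by simple linear interpolation of the resulting dose-response curve. TGI is the concentration that stops growth completely.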

Regarding `C#CCN1C(=O)CN2C(Cl)(Cl)C2(c2ccccc2)c2cc(Cl)ccc21` (centres undefined), the TGI with UACC-257 melanoma, with LOX IMVI melanoma, in the assay with OVCAR-4 ovarian, in the assay on SF-295 CNS, in the assay on ACHN renal and in the assay on HCT-116 colon was greater than 100 µM throughout. This compound also had a TGI in the assay with OVCAR-8 ovarian greater than 100 µM.
With `CNC(=O)/C(C#N)=C(\N)N1CCCC1`, the TGI with A498 renal, with 786-0 renal, with ACHN renal, in the assay on HCT-116 colon, with SF-539 CNS and in the assay with OVCAR-8 ovarian was greater than 100 µM in each case.
Take `CCOC(=O)C1=C(C)NC(c2ccccc2)=C(C(=O)OCc2ccccc2)C1C#Cc1ccccc1` (centres undefined): the TGI in the assay on UACC-257 melanoma, in the assay on A498 renal, in the assay with LOX IMVI melanoma, with 786-0 renal, in the assay with SF-295 CNS and in the assay with HCT-116 colon was greater than 100 µM throughout. For the same compound, the TGI in the assay on SF-539 CNS and with OVCAR-8 ovarian was greater than 100 µM each time.
For the compound `COc1ccc2nc3c(nc2c1)C(C)(C)C=C3c1ccc(Br)cc1`, the TGI with UACC-257 melanoma, in the assay on A498 renal, in the assay with LOX IMVI melanoma, in the assay with OVCAR-4 ovarian, in the assay with 786-0 renal and in the assay with ACHN renal was greater than 100 µM throughout. Besides, the TGI in the assay with HCT-116 colon, with SF-539 CNS and with OVCAR-8 ovarian was greater than 100 µM throughout.
Turning to `CCCCCCCCC/C=C1/CC(CO)(COC(=O)C2CCCCC2)OC1=O` (centres undefined), the TGI in the assay with UACC-257 melanoma, in the assay on A498 renal, in the assay with LOX IMVI melanoma, in the assay on OVCAR-4 ovarian, in the assay on 786-0 renal and with SF-295 CNS was greater than 100 µM each time. For the same compound, the TGI in the assay with ACHN renal, in the assay on HCT-116 colon and with OVCAR-8 ovarian was greater than 100 µM in each case.
Turning to `CCCC(CCC(=O)O)(CCC(=O)O)[N+](=O)[O-]`, the TGI with UACC-257 melanoma, in the assay on 786-0 renal, in the assay on SF-295 CNS, with ACHN renal, with HCT-116 colon and in the assay on SF-539 CNS was greater than 100 µM each time. In the assay on OVCAR-8 ovarian, this compound showed a TGI greater than 100 µM.
For `Cc1ccc2c(=O)cc(-c3ccccc3)[nH]c2n1`, the TGI with UACC-257 melanoma is greater than 43.4 µM; in the assay on LOX IMVI melanoma, greater than 100 µM; with OVCAR-4 ovarian, greater than 100 µM; with 786-0 renal, greater than 86 µM; in the assay with ACHN renal, greater than 100 µM; with HCT-116 colon, 59.4 µM. Also, the TGI was determined as 2.79 µM in the assay with SF-539 CNS and 0.853 µM with OVCAR-8 ovarian.
For the compound `COc1ccccc1-c1nc[nH]c1-c1ccccc1OC`, the TGI was greater than 100 µM in the assay on UACC-257 melanoma; greater than 100 µM with A498 renal; 41.7 µM with LOX IMVI melanoma; greater than 100 µM with OVCAR-4 ovarian; greater than 100 µM with 786-0 renal; 97.9 µM with SF-295 CNS. For the same compound, the TGI in the assay on ACHN renal and in the assay on HCT-116 colon was greater than 100 µM throughout.
Turning to `Cc1[nH]c(-c2ccccc2)c(O)c1C(=O)OC1CC(C)CCC1C(C)C` (centres undefined), the TGI turned out to be 29.5 µM in the assay with UACC-257 melanoma; 32.7 µM in the assay on A498 renal; 27.4 µM in the assay with OVCAR-4 ovarian; 28.6 µM with 786-0 renal; 24.8 µM in the assay with SF-295 CNS; 30 µM in the assay on ACHN renal. Besides, the TGI turned out to be 28.1 µM in the assay on HCT-116 colon, 29.7 µM in the assay on SF-539 CNS and 29.9 µM with OVCAR-8 ovarian.
Regarding `Clc1ccc(CCNCCNC2(c3cc4ccccc4s3)CCCCC2)cc1Cl`, the TGI in the assay on UACC-257 melanoma was found to be 3.29 µM; with A498 renal, 3.17 µM; with LOX IMVI melanoma, 3.36 µM; with OVCAR-4 ovarian it was 3.17 µM; in the assay with 786-0 renal it was 3.65 µM; with SF-295 CNS, 3.04 µM. Moreover, the figures for the TGI in the assay on ACHN renal, in the assay on HCT-116 colon and in the assay on OVCAR-8 ovarian were 3.1 µM, 3.26 µM and 3.54 µM, respectively.
As to `OC[C@@H](O)[C@H](O)[C@H](O)[C@@H](O)C1SCCCS1`, the TGI in the assay with UACC-257 melanoma, in the assay on A498 renal, in the assay on OVCAR-4 ovarian, in the assay with 786-0 renal, in the assay on SF-295 CNS and in the assay with ACHN renal was greater than 100 µM in each case. For the same compound, the TGI in the assay with HCT-116 colon, in the assay with SF-539 CNS and in the assay on OVCAR-8 ovarian was greater than 100 µM throughout.
For the compound `Nc1ccc2ncc(NCc3ccc(F)cc3)nc2c1`, the TGI with UACC-257 melanoma, in the assay with LOX IMVI melanoma, in the assay with OVCAR-4 ovarian, in the assay on 786-0 renal, in the assay with SF-295 CNS and with ACHN renal was greater than 100 µM in each case. Besides, the TGI with HCT-116 colon, in the assay with SF-539 CNS and with OVCAR-8 ovarian was greater than 100 µM in each case.
Turning to `CC(=O)Nc1ccc(S(=O)(=O)Nc2cnc3ccccc3n2)cc1`, the TGI in the assay with UACC-257 melanoma, in the assay with A498 renal, in the assay on LOX IMVI melanoma, in the assay on OVCAR-4 ovarian, with 786-0 renal and in the assay on SF-295 CNS was greater than 100 µM each time. In addition, the TGI with ACHN renal, with SF-539 CNS and with OVCAR-8 ovarian was greater than 100 µM in each case.
In the case of `Cc1cc2nc3c(C)c4ccccc4c(C)n3c2cc1C`, the TGI in the assay on UACC-257 melanoma was greater than 10 µM; with LOX IMVI melanoma it was 3.61 µM; with OVCAR-4 ovarian it was greater than 10 µM; in the assay on 786-0 renal it was 6.62 µM; with SF-295 CNS it was greater than 10 µM; in the assay on ACHN renal it was greater than 10 µM. In addition, the TGI is 3.96 µM in the assay with HCT-116 colon, 4.88 µM with SF-539 CNS and greater than 10 µM in the assay with OVCAR-8 ovarian.
In the case of `CCN(CC)CCNC(=O)C1COc2ccc(-c3cc(=O)c4ccccc4o3)cc2O1` (centres undefined), the TGI stood at 32 µM with UACC-257 melanoma; 30.3 µM with A498 renal; 31.7 µM in the assay with LOX IMVI melanoma; 35.8 µM with OVCAR-4 ovarian; 39.3 µM with SF-295 CNS; 32.7 µM with HCT-116 colon. Also, the TGI with SF-539 CNS worked out at 30 µM; in the assay on OVCAR-8 ovarian, 33.4 µM.

For the origin of these results see PubChem BioAssay (NCI).
